Data set [1] can be described thus: Body weight of DIO mice, 4-hydroxyisoleucine and Rimonabant alone and in combination (Example 7). As to conditions: oral. Type of data set: in vivo, C57BU6 mice. How it is done:
C57BU6 mice were received at 7-8 weeks of age and fed a high fat diet (60% of calories from fat) for 8 weeks. Seven days prior to treatment, animals were randomized based on their body weight and fasted glycemia values into control and treated groups (n=8). The animals were treated by oral gavage twice daily with 4-OH (50 mg/kg of body weight; group 2), once daily in the afternoon with Rimonabant (0.1 mg/kg; group 3), and a combination of the two treatments (4-OH 50 mg/kg twice daily +Rimonabant 0.1 mg/kg once daily; group 4). The control group (group 1) received vehicle alone twice daily. After 3 weeks of treatment (day 22), the doses were increased as follows: 4-OH 100 mg/kg twice daily (group 2), Rimonabant 1 mg/kg once daily (group 3), and the combination (4-OH 100 mg/kg twice daily+Rimonabant 1 mg/kg once daily; group 4). The animals were treated for 1 week with these higher doses. Body weight of the mice was recorded every day for all groups from Day 6 to Day 28.

Data set [2] can be described thus: Reversal of weight gain in obese wistar rats on HFHS diet (Example 11). Particulars: 100 mg/kg twice daily oral. It counts as in vivo. From the text:
The aim of this study was to evaluate the effect of chronic administration of 4-hydroxyisoleucine (4-OH, Compound 14a) on food consumption, tissue weight, and body weight gain of wistar obese rats.
A total of 30 animals were used in the study. The animals were acclimated for 1 week and fed standard chow. The animals were randomized into 3 groups of 10 animals each. Two groups were fed a high fat, high sucrose diet (HFHS), and 1 untreated control group was fed standard chow over a 28 day period. Animals were housed separately and food consumption was monitored daily.
In the following period of 28 days, the feeding regimen remained the same for the 3 groups; however, 1 group fed HFHS was treated with twice daily oral administration of 4-OH at 100 mg/kg per dose. For the 28 days of treatment, 4-OH was dissolved in reverse osmosis water, aliquoted, and kept at 4° C. Untreated animals received water twice daily.

Data set [3] is described as follows: Body weight gain in C57BU6 mice shifted to a high fat diet, analogs and isomers, 3 days (Example 9). As to conditions: C57BU6 mice on high fat diet, 100 mg/kg twice daily oral gavage. It counts as in vivo. How it is done: C57BU6 mice were received at 6-7 weeks of age and fed a standard commercial chow for 1 week (acclimation period). The animals were randomized based on their body weight values, into control and treatment groups (n=6). Then, animals were shifted to a high fat diet (60% of calories from fat) and treated twice daily by oral gavage with 4-hydroxyisoleucine (4-OH, compound 14a) or different analogs and isomers of 4-OH at the dose of 100 mg per kg of body weight for 3 days. The control group (Control HFD) received vehicle (water) alone and a group was kept under standard chow (Control Lean). Body weight of the mice was recorded daily. Two different experiments were run and the effect on body weight gain of selected analogs and isomers according to the invention is presented in FIG. 22A (Experiment 1) and FIG. 22B (Experiment 2).

The format of data set [4] is in vivo. The source says:
The objective of this study was to evaluate the effect of chronic administration of 4-hydroxyisoleucine (4-OH, compound 14a) on food consumption and body weight gain of DIO-mice. Both parameters were monitored for 1 week prior to the commencement of treatment, then for the 77 days of treatment and for an additional 12 days post-treatment.
C57BL/6 mice were received at 7-8 weeks of age and fed a high fat diet (60% of calories from fat) for several weeks. A total of 32 animals were used in the study. The animals were distributed into 4 groups (3 treated, 1 control group, all on high fat diet). Each group was composed of 8 animals. The mice were randomized according to body weight and basal glycemia values following a 5±0.5 hour fasting period.
The test agent was dissolved in reverse osmosis water. 4-Hydroxyisoleucine was aliquoted and kept at 4° C. Control animals received reverse osmosis water twice daily (group 1). Mice from groups 2, 3 and 4 were treated twice daily with 4-hydroxyisoleucine (4-OH, compound 14a) at 100, 50, and 25 mg/kg, respectively. All groups were treated by oral gavage. Treatment commenced on Day 0 and ended on Day 77. Food consumption was measured daily and averaged on a weekly basis beginning one week before the start of treatment as shown in FIG. 15B. Similarly, food consumption was monitored during the treatment period and for 12 days after treatment was stopped as shown in FIGS. 15A and 15B.

The nature of data set [5]: Weight gain and epididymal fat of DIO-C57Bl/6 mice, 4-hydroxyisoleucine and Exendin-4 alone or in combination (Example 5). Type of data set: in vivo, C57BI/6 mice. Particulars: s.c., 21 days. How it is done: Glycemic response was monitored by an Oral Glucose Tolerance Test (OGTT) performed on days 0, 7, 14, and 21 of treatment.
A total of 56 animals were used in the study. The animals were distributed into 7 groups (5 treated, 1 normal diet control, and 1 high fat diet control group). Each group was composed of 8 animals. […] For the three weeks of treatment, the test agents were dissolved in sterile saline for injection (USP). 4-Hydroxyisoleucine was kept at 4° C. (administration to groups 3, 4, and 7) while a frozen aliquot of Exendin-4 was thawed each dosing day for administration to groups 5, 6, and 7. Control animals received sterile saline, twice daily (groups 1 and 2). […] Animals from groups 5 and 6 received sterile saline as the AM treatment, while the PM treatment consisted of 0.05 and 0.01 mg/kg of Exendin-4, respectively. For Group 7, the AM treatment consisted of 50 mg/kg 4-OH only, while the PM treatment consisted of 0.01 mg/kg of Exendin-4+50 mg/kg of 4-OH. All groups were treated by subcutaneous injection.

For data set [6] the following is noted: cited from earlier work.
Setting [7] is: obese wistar rats (28 days HFHS before treatment).

These results are taken from patent publication US20060223884A1, “Compounds and compositions for use in the prevention and treatment of obesity and related syndromes” (priority 2005, published 2006).

SMILES strings stand for the structures. Where two headings read alike, the source gives them in different places.

For the compound `C[C@@H]([C@H](C)O)[C@H](N)C(=O)O` [compound 14a, (2S,3R,4S)-4-Hydroxyisoleucine], in data set [1] (4-OH 50 mg/kg twice daily, Rimonabant 0.1 mg/kg once daily, alone or in combination), the “body weight gain after 21 days (low dosage treatment)” value is reported as “slight reduction of body weight gain”. The “body weight after dose increase (day 22 to 28)” value in data set [1] (4-OH 100 mg/kg twice daily, Rimonabant 1 mg/kg once daily, alone or in combination (combination compared to each compound separately)) is recorded as “immediately reduced the body weight”. Also, in data set [2] (setting [7]), the “epididymal and peri-renal adipose tissue” value is “reduction of epididymal and pen-renal adipose tissue”; the “muscle, brown fat, and organ weight” value is on record as “not affected”; the tolerability of treatment result was “well tolerated”; the weight gain entry is listed as “Moderation of weight gain”. In addition, the food consumption result in data set [2] (obese wistar rats, 28 days, could not account for the differences in adiposity) is reported as “reduction in food consumption”. In data set [3], the “body weight as compared to pre-treatment values (FIG. 22B, one experiment)” value is recorded as “reduced body weight of the mice as compared to pre-treatment values” and the “body weight gain induced by the high fat diet” value is “reduced body weight gain induced by the high fat diet”. For the same compound, the “effect on weight gain” value in data set [4] (DIO mice, 100 mg/kg twice daily oral, Day 28 to Day 84) is “sustained and highly significant”. The tolerability of treatments entry in data set [4] (DIO mice, 25, 50 and 100 mg/kg twice daily, oral gavage, 77 days) is given as “well-tolerated”. Also, in data set [4] (DIO mice, 50 and 100 mg/kg twice daily oral, first three weeks of treatment), the weight gain entry was “moderation of weight gain”. In addition, the food consumption result in data set [4] (DIO mice, during the first week of treatment, paralleling the reduction in body weight gain) is recorded as “slight decrease in food consumption”. Besides, the “body weight gain and food consumption after cessation of treatment” value in data set [4] (DIO mice, first week following cessation of treatment with 100 mg/kg) is listed as “increase”. The body weight gain result in data set [5] (4-OH 50 mg/kg twice daily, Exendin-4 0.01 mg/kg (PM), alone or in combination) is listed as “decrease in body weight gain”. The “weight of epididymal fat” value in data set [5] (4-OH 100 mg/kg, Exendin-4 0.01 mg/kg, combination 4-OH 50 mg/kg + Exendin-4 0.01 mg/kg) is on record as “reduction of the weight of epididymal fat”. Further, the “insulinotropic and insulin sensitizing activities” value in data set [6] (Broca et al. 1999, 2000, 2004, WO 97/32577, WO 01/15689) is “insulinotropic and insulin sensitizing activities”. Moreover, the antidyslipidemic activities result in data set [6] (Narender et al. 2006) is recorded as “antidyslipidemic activities”.
